Key:
[1] = biological target: T1, LPAR1 (Homo sapiens, UniProt Q92633); test: LPAR1 Arrestin Assay (arrestin reporter assay); type: cell-based; conditions: U2OS cells stably expressing the LPAR1 receptor, 200 nM 18:1 LPA (EC80); for Emax: read-out: Maximum Inhibition
T1 construct: host or cells: U2OS
Description: One day prior to the experiment, frozen U2OS cells stably expressing the LPAR1 receptor (Life Technologies, Grand Island, N.Y., #K1519A) were thawed, centrifuged at 1,000 rpm for 5 minutes to remove DMSO, and resuspended in FreeStyle™ media (Gibco, Grand Island, N.Y.). Forty microliters of cells were plated into PDL-coated 384-well plates (Greiner Bio-One, Monroe, N.C.) at 10,000 cells/well, and then the plates were incubated overnight in humidified 5% CO2 at 37° C. Test compounds were dissolved in DMSO, and 12-point, 1:3 dilution CRCs were prepared in duplicate; daughter plates were prepared by aliquoting 0.8 μL/well of test compound dilutions into 384-well plates. On the day of the assay, the daughter plates were diluted to 6× stocks using HEPES-buffered HBSS, then 10 μL of 6× test compounds were added to the cells, and the plates were incubated at 37° C. for one hour. After this 1 hour incubation, 10 μL of a 6× stock of the LPAR1 agonist, 18:1 LPA (Avanti Polar Lipids, Alabaster, Ala.), was prepared in HEPES-buffered HBSS+0.1% fatty acid-free BSA (Sigma, St. Louis, Mo.). The 6×LPA was added to all wells for a final concentration of 200 nM, which corresponds to the 18:1 LPA EC80 in this arrestin assay. The final DMSO concentration in the assay plate was 0.1%, and the final BSA concentration was 0.02%. After addition of LPA to all wells, the assay plates were incubated in humidified 5% CO2 at 37° C. for five hours. During the incubation period, 6× dye from the LiveBLAzer™-FRET B/G with CCF4-AM kit (Life Technologies, Grand Island, N.Y.) was prepared according to manufacturers' instructions. At the end of the 5 hour compound incubation, 10 μL of 6× dye was added to each well, and the assay plate was incubated for two hours in the dark at room temperature. Throughout the assay procedure, all volume additions were performed with a Biomek® NX liquid handler (Beckman Coulter, Indianapolis, Ind.). After the 2 hour dye-load, fluorescence was measured on an EnVision® Multilabel Plate Reader (Perkin Elmer, Waltham, Mass.) with an excitation filter at 409/20 nm and emission filters at 460/40 nm and 530/30 nm. Data processing was performed as recommended by the LiveBLAzer™-FRET B/G with CCF4-AM kit manual; all test compound CRCs were performed in duplicate with n≥3.

[2] = tested on: LPA-induced MCP-1 in NRK-49F cells; test: LPA-induced MCP-1 AlphaLISA assay; type: cell-based; conditions: Rattus norvegicus, final LPA 10 μM, 7 hours; for Emax: read-out: Maximum Inhibition
Outline: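 NRK-49F rat fibroblasts, serum-starved overnight, pretreated with compound for 30 min at 37 °C (1% DMSO final), then stimulated with 10 μM LPA final. MCP-1 in the supernatant was measured by mouse/rat CCL2 AlphaLISA. IC50 values came from four-parameter logistic fits of the ratio data.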

T1 sequence (Q92633 whole entry): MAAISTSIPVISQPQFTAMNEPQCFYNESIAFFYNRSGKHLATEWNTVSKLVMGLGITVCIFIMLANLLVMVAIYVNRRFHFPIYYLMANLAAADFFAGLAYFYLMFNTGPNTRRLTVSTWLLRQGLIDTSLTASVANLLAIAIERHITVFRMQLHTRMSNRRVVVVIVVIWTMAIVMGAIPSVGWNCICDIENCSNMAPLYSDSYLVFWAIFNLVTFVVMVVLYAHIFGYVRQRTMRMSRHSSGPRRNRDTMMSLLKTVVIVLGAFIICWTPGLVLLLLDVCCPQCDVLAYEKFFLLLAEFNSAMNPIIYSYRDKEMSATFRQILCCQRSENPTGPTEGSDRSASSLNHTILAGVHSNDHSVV

Row | SMILES | IC50 [1] [nM] | Emax [1] [%] | IC50 [2] [nM] | Emax [2] [%]
1 | COc1cc(C(=O)N(CCCCC(=O)O)CCCc2ccco2)cc(OC)c1C [Example 173, 5-{(3,5-dimethoxy-4-methylbenzoyl)[3-(furan-2-yl)propyl]amino}pentanoic Acid] | 295 | 122 | 4540 | 64
2 | COc1cc(C(=O)N(CCCc2ccccc2)CCOCP(=O)(O)O)cc(OC)c1C [Example 50, ({2-[(3,5-dimethoxy-4-methylbenzoyl)(3-phenylpropyl)amino]ethoxy}methyl)phosphonic Acid] | 1 | 103 | 2 | 98
3 | COc1cc(C(=O)N(CCCCC(=O)O)CCCc2ccccc2)cc(OC)c1OC [Example 10, 5-[(3-phenylpropyl)(3,4,5-trimethoxybenzoyl)amino]pentanoic Acid] | 674 | 114 | 4840 | 70
4 | COc1cc(C(=O)N(CCCCC(=O)O)CCCc2cccc(Cl)c2)cc(OC)c1C [Example 38, 5-{[3-(3-chlorophenyl)propyl](3,5-dimethoxy-4-methylbenzoyl)amino}pentanoic Acid] | 26 | 114 | 108 | 91
5 | COc1cc(C(=O)N(CCCCC(=O)NS(C)(=O)=O)CCCc2ccccc2)cc(OC)c1C [Example 111, N-{5-[(methanesulfonyl)amino]-5-oxopentyl}-3,5-dimethoxy-4-methyl-N-(3-phenylpropyl)benzamide] | 93 | 116 | 787 | 91
6 | COc1cc(C(=O)N(CCCc2cccc(Cl)c2)CCSCC(=O)O)cc(OC)c1C [Example 122, [(2-{[3-(3-chlorophenyl)propyl](3,5-dimethoxy-4-methylbenzoyl)amino}ethyl)sulfanyl]acetic Acid] | 152 | 127 | 419 | 97
7 | COc1cc(C(=O)N(CCCc2ccccc2Cl)CCOCC(=O)O)cc(OC)c1C [Example 131, (2-{[3-(2-chlorophenyl)propyl](3,5-dimethoxy-4-methylbenzoyl)amino}ethoxy)acetic Acid] | 2140 | 120 | 1730 | 71
8 | COc1cc(C(=O)N(CCCc2cccc(Cl)c2)CCOCC(=O)O)cc(OC)c1C [Example 109, (2-{[3-(3-chlorophenyl)propyl](3,5-dimethoxy-4-methylbenzoyl)amino}ethoxy)acetic Acid] | 139 | 111 | 1550 | 91
9 | COc1cc(C(=O)N(CCCc2ccccc2)CCCC(C)(C)C(=O)O)cc(OC)c1C [Example 57, 5-[(3,5-dimethoxy-4-methylbenzoyl)(3-phenylpropyl)amino]-2,2-dimethylpentanoic Acid] | 4 | 103 | 39 | 97
10 | COc1cc(C(=O)N(CCCCC(=O)O)CCCc2cccc(F)c2)cc(OC)c1C [Example 33, 5-{(3,5-dimethoxy-4-methylbenzoyl)[3-(3-fluorophenyl)propyl]amino}pentanoic Acid] | 71 | 110 | 215 | 84
11 | COc1cc(C(=O)N(CCCc2cccc(F)c2)CCOCC(=O)O)cc(OC)c1C [Example 129, (2-{(3,5-dimethoxy-4-methylbenzoyl)[3-(3-fluorophenyl)propyl]amino}ethoxy)acetic Acid] | 218 | 124 | 968 | 90
12 | COc1cc(C(=O)N(CCCc2ccccc2F)CCOCC(=O)O)cc(OC)c1C [Example 110, (2-{(3,5-dimethoxy-4-methylbenzoyl)[3-(2-fluorophenyl)propyl]amino}ethoxy)acetic Acid] | 706 | 110 | 1260 | 83
13 | COc1cc(C(=O)N(CCCc2ccccc2)CCSC(C)CC(=O)O)cc(OC)c1C (centres unmarked) [Example 62, 3-({2-[(3,5-dimethoxy-4-methylbenzoyl)(3-phenylpropyl)amino]ethyl}sulfanyl)butanoic Acid] | 39 | 114 | 184 | 94
14 | COc1ccc(C2(C(=O)N(CCCCC(=O)O)CCCc3ccccc3)CC2)cc1 [Example 8, 5-{[1-(4-methoxyphenyl)cyclopropane-1-carbonyl](3-phenylpropyl)amino}pentanoic Acid] | 691 | 112 | 1830 | 84
15 | COc1cc(C(=O)N(CCCc2cccc(F)c2)CCSCC(=O)O)cc(OC)c1C [Example 117, [(2-{(3,5-dimethoxy-4-methylbenzoyl)[3-(3-fluorophenyl)propyl]amino}ethyl)sulfanyl]acetic Acid] | 103 | 116 | 180 | 91
16 | COc1cc(C(=O)N(CCCc2ccccc2)CCOCC(=O)O)cc(OC)c1C [Example 6, {2-[(3,5-dimethoxy-4-methylbenzoyl)(3-phenylpropyl)amino]ethoxy}acetic Acid] | 126 | 130 | 723 | 80
17 | COc1cc(C(=O)N(CCCCC(=O)O)CCCc2ccc(Cl)o2)cc(OC)c1C [Example 185, 5-{[3-(5-chlorofuran-2-yl)propyl](3,5-dimethoxy-4-methylbenzoyl)amino}pentanoic Acid] | 288 | 122 | 536 | 84
18 | COc1cc(C(=O)N(CCCCC(=O)O)CCCc2ccccc2)cc(OC)c1Br [Example 20, 5-[(4-bromo-3,5-dimethoxybenzoyl)(3-phenylpropyl)amino]pentanoic Acid] | 43 | 101 | 169 | 89
19 | COc1cc(C(=O)N(CCCc2ccccc2)CC(=O)NC2(C(=O)O)CC2)cc(OC)c1C [Example 3, 1-{[N-(3,5-dimethoxy-4-methylbenzoyl)-N-(3-phenylpropyl)glycyl]amino}cyclopropane-1-carboxylic Acid] | 2230 | 110 | 3120 | 74
20 | COc1cc(C(=O)N(CCCc2ccccc2)CCSCCC(=O)O)cc(OC)c1C [Example 60, 3-({2-[(3,5-dimethoxy-4-methylbenzoyl)(3-phenylpropyl)amino]ethyl}sulfanyl)propanoic Acid] | 308 | 110 | 1550 | 84
21 | COc1cc(C(=O)N(CCCCC(=O)O)CCCc2ccccc2)cc(OC)c1C1CC1 [Example 35, 5-[(4-cyclopropyl-3,5-dimethoxybenzoyl)(3-phenylpropyl)amino]pentanoic Acid] | 13 | 103 | 107 | 92
22 | COc1cc(C(=O)N(CCCc2ccc(C)o2)CCSCC(=O)O)cc(OC)c1C [Example 132, [(2-{(3,5-dimethoxy-4-methylbenzoyl)[3-(5-methylfuran-2-yl)propyl]amino}ethyl)sulfanyl]acetic Acid] | 490 | 126 | 783 | 80
23 | COc1cc(C(=O)N(CCCCC(=O)O)CCCc2ccccc2)cc(OC)c1C [Example 4, 5-[(3,5-dimethoxy-4-methylbenzoyl)(3-phenylpropyl)amino]pentanoic Acid] | 27 | 101 | 188 | 91

— US20190119200A1, “TERTIARY AMIDES AND METHOD OF USE” (AbbVie Inc., priority 2016, published 2019)
